Records with an inconclusive call do not appear. The source made the active and inactive calls.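 The calls were made as follows: active = compound lowering the normal-ribosome reporter at least twice as much as the humanized-ribosome reporter, growth loss under a set limit; inconclusive = no clear call, values can overlap the other calls; inactive = the rest.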
System: E. coli WT-GFP vs G2058-humanized RFP, fluorescence, 24 h
Assay: growth inhibition of wild-type GFP E. coli versus G2058-humanized strain, dose response, G2058 mutant RFP vs wild-type GFP, cherry-pick, two tests (AID 1035470)
[1] = E. coli WT-GFP vs G2058-humanized RFP mixed culture, total growth OD600, 24 h
[2] = E. coli WT-GFP vs G2058-humanized RFP mixed culture, OD600 growth, 24 h, test 1
[3] = measured here: mutant RFP, test 1
[4] = measured here: wild-type GFP, test 1
[5] = measured here: G2058 humanized mutant RFP growth

SMILES	AC50 [1] [µM]	AC50	further results
C=C1c2cc3c(cc2NC(=S)N1Cc1ccccc1)OCO3	> 100	–	–
CN(C)CCCN(C(=O)CCSc1ccccc1)c1nc2cc3c(cc2s1)OCO3	> 100	> 100 µM (inactive)	–
COc1ccc(Nc2oc(-c3ccco3)nc2S(=O)(=O)c2ccc(F)cc2)cc1	–	8.11 µM	AC50 [2]: 29 µM; AC50 [3]: 37.6 µM; AC50 [4]: 4.64 µM
O=C1c2ccccc2C(c2nnnn2C2CCCCC2)N1CCc1ccc(O)cc1 (centres undefined)	–	> 100 µM (inactive)	–
N#Cc1cccc(-c2ccc3c(c2)[C@H]2[C@H](CCN2C(=O)c2ccccc2F)[C@H](CO)N3)c1	–	> 100 µM (inactive)	–
CC(C)(C)C1CCC(OC(=O)C[N+]2(C)CCCCC2)CC1 (centres undefined)	> 100	> 100 µM (inactive)	–
COc1ccc(-c2nc3ccc(Cl)cn3c2Cc2cccc(F)c2)cc1OC	–	> 100 µM (inactive)	–
CCOc1ccc2nc(NC(=O)CSc3nc(SC)ns3)sc2c1	> 100	> 100 µM (inactive)	–
COC(=O)c1c(NC(=O)CCC(=O)O)sc(Cc2ccccc2)c1C	35.7	28.4 µM	AC50 [2]: 27 µM; AC50 [5]: 5.11 µM; AC50 [3]: 11.9 µM; AC50 [4]: 1.53 µM
COc1ccc(OC)c(C(=O)COC(=O)c2ccc([N+](=O)[O-])o2)c1	> 100	> 100 µM (inactive)	–
O=C(COC(=O)C1CC1)Nc1nc(-c2ccc(F)c(F)c2)cs1	> 100	–	–
CS(=O)(=O)NCCSc1cc(C(F)(F)F)nc2ccccc12	–	> 100 µM (inactive)	–
CCCNC(=O)c1cc(C2CCCN(S(=O)(=O)c3cccc4cccnc34)C2)on1 (centres undefined)	–	> 100 µM (inactive)	–
CN(C)CCCN(C(=O)CCOc1ccccc1)c1nc2c(F)cccc2s1	–	> 100 µM (inactive)	–
CC(=O)NCCOc1nc(N2CCCCC2)nc(N2CCCCC2)n1	–	> 100 µM (inactive)	–
COc1cc2c(cc1OC)CN(CC(=O)Nc1ccccc1SC)CC2	> 100	> 100 µM (inactive)	AC50 [5]: 47.2 µM
CCC1(C(=O)OC)CCc2c(cc(OC)c3ccccc23)C1=O (centres undefined)	–	> 100 µM (inactive)	–
Cc1cc(C(=O)OCC(=O)Nc2cccc(S(N)(=O)=O)c2)c2ccccc2n1	–	> 100 µM (inactive)	–
CSc1ccccc1OCc1cc(C(=O)N[C@H]2CCCCNC2=O)no1	> 100	> 100 µM (inactive)	–
CCOc1ccccc1C(=O)OCC(=O)NCCc1ccc(OC)cc1	50.9	> 100 µM (inactive)	–
Cc1cccc(-c2ccc([C@H]3[C@H](CO)N4CCCCN(S(=O)(=O)c5ccccc5C)C[C@@H]34)cc2)c1	> 100	> 100 µM (inactive)	–

SMILES	AC50 [1] [µM]	AC50	further results
O=C(CN1CCN(S(=O)(=O)c2ccc(Cl)cc2)CC1)Nc1ccc2c(c1)CCC2	–	> 100 µM (inactive)	–
CCOC(=O)c1sc(Nc2cccc(Cl)c2)nc1C	–	> 100 µM (inactive)	–
O=C(Nc1cccc(Cl)c1)N1C[C@@H]2[C@H](c3ccccc31)[C@@H](CO)N2C(=O)c1cccnc1	–	–	AC50 [5]: > 100 µM
OCCN(Cc1ccccc1)Cc1ccc(F)c(F)c1	–	> 100 µM (inactive)	–
COc1ccc(C(=O)CSc2nc3ccccc3n2CC(=O)c2ccccc2)cc1	–	> 100 µM (inactive)	AC50 [5]: > 100 µM
Cn1cc(CN2CCCC(C(=O)Nc3cccc(-c4cc5ccccc5[nH]4)c3)C2)cn1 (centres undefined)	–	> 100 µM (inactive)	–
O=C(CC1C(=O)N(c2ccc(Cl)cc2)C(=S)N1CCc1ccncc1)Nc1ccc(F)cc1 (centres undefined)	41.8	> 100 µM (inactive)	–
Fc1cccc(CCN2C(=S)NC[C@@H]2CC2CCCCC2)c1	–	> 100 µM (inactive)	–
CC(CCc1ccccc1)NC(=O)CCC1CCCC1 (centres undefined)	> 100	–	–
Cc1cccc(-c2ccc([C@H]3[C@@H](CO)N4CCCCN(S(=O)(=O)c5ccccc5C)C[C@H]34)cc2)c1	> 100	–	–
COc1cccc(NC(=O)C(C)SCc2ccccc2)c1 (centres undefined)	> 100	–	–
COc1ccc(NC(=O)CCC(=O)c2cccs2)cc1S(=O)(=O)Nc1ccc(Cl)cc1	–	> 100 µM (inactive)	–
COc1ccc(CC(=O)NCc2csc(-c3cccs3)n2)cc1OC	–	> 100 µM (inactive)	–
CCn1c(COc2cccc(OC)c2)nnc1SCC(=O)Nc1cc(OC)ccc1OC	–	–	AC50 [5]: 19.4 µM
N#Cc1ccc(OCC(=O)N2CCN(S(=O)(=O)c3ccc(Cl)s3)CC2)cc1	–	> 100 µM (inactive)	–
Cc1ccccc1NS(=O)(=O)c1cc(C(=O)NCCC2=CCCCC2)ccc1C	–	> 100 µM (inactive)	–
COc1ccc(NC(=O)Nc2cccc3c2O[C@H](CN(C)S(=O)(=O)c2ccc(Cl)cc2)[C@H](C)CN([C@H](C)CO)C3=O)cc1	–	> 100 µM (inactive)	–
O=C(COC(=O)CCSc1ccc(F)cc1)NCc1ccc(F)cc1	> 100	> 100 µM (inactive)	–
COc1cc(OC)cc(C(=O)Nc2ccc(S(=O)(=O)Nc3cnc4ccccc4n3)cc2)c1	–	> 100 µM (inactive)	–
CCCN1C(=O)C(O)(c2c(C)[nH]c3ccccc23)c2ccccc21 (centres undefined)	> 100	–	–
O=C(COn1nnc2ccc(C(F)(F)F)cc21)Nc1c(Cl)cccc1Cl	> 100	> 100 µM (inactive)	–

SMILES	AC50 [1] [µM]	AC50	further results
O=C(NCc1ccccc1Cl)c1ccc2c(c1)SC1=NS(=O)(=O)CCN12	> 100	> 100 µM (inactive)	–
Cc1cccc(-c2ccc([C@@H]3[C@@H](CO)N4CCCCN(S(=O)(=O)c5ccccc5C)C[C@H]34)cc2)c1	> 100	–	–
O=C1c2ccccc2C(c2nnnn2Cc2ccccc2)N1Cc1cccc(F)c1 (centres undefined)	> 100	–	–
C=CCN(c1ccccc1)S(=O)(=O)c1ccc(Cl)c(C(=O)OCC(=O)NCCCN2CCCC2=O)c1	> 100	–	–
CN(CC(=O)Nc1ccc(F)cc1)C(=O)COc1ccc([N+](=O)[O-])cc1Cl	> 100	> 100 µM (inactive)	–
O=C(O)CC(CC(=O)Nc1ccc(Oc2ccccc2)cc1)c1ccccc1 (centres undefined)	–	> 100 µM (inactive)	–
Cc1ccc(OCCCC(=O)NC(C)c2ccccc2)c(C)c1 (centres undefined)	–	> 100 µM (inactive)	–
COC(=O)C[C@H]1C[C@@H]2c3cc(NC(=O)Nc4ccc(C(F)(F)F)cc4)ccc3O[C@@H]2[C@H](CO)O1	–	> 100 µM (inactive)	–
Cn1ccc2cc(-c3ccc4ncnc(NCc5cccs5)c4c3)ccc21	> 100	–	–
COc1ccccc1N(C)S(=O)(=O)c1ccc(Cl)c(C(=O)NC2=NCCS2)c1	–	–	AC50 [5]: 46.3 µM
COC(=O)c1ccc(CCc2cc(O)c(Br)cc2O)cc1	> 100	–	–
COc1ccc(-c2cn3c(C)c(C(=O)Nc4cccc(C)n4)sc3n2)cc1	> 100	> 100 µM (inactive)	–
CCC(=O)Nc1nc2c(OC)ccc(OC)c2s1	–	> 100 µM (inactive)	–
CC(C)C[C@H]1COc2cc(Br)ccc2S(=O)(=O)N1	> 100	> 100 µM (inactive)	AC50 [5]: > 100 µM
COc1ccc(C(=O)Nc2ccc3nc(C)sc3c2)cc1OC	–	> 100 µM (inactive)	–
COc1cccc(NC(=O)COC(=O)Cc2ccc(Br)cc2)c1	> 100	> 100 µM (inactive)	–
COc1ccc(-n2ccnc2SCC(=O)NCc2ccccc2)c(OC)c1	> 100	> 100 µM (inactive)	–
CCn1ccnc1CN1CCCC(C(=O)c2ccc3cc(OC)ccc3c2)C1 (centres undefined)	> 100	> 100 µM (inactive)	–
CCc1ccc(OCC(=O)NCc2ccco2)c(Br)c1	–	> 100 µM (inactive)	–
O=c1[nH]c(C2CCN(S(=O)(=O)c3ccc4c(c3)OCCO4)CC2)nc2c1nnn2Cc1ccccc1F	> 100	> 100 µM (inactive)	–
COc1ccc(N(CCC(=O)O)S(=O)(=O)c2ccc(C)cc2C)cc1	> 100	> 100 µM (inactive)	–

SMILES	AC50 [1] [µM]	AC50	further results
C[C@H]1CN([C@@H](C)CO)C(=O)CCCn2nncc2CO[C@@H]1CN(C)Cc1ccccc1C(F)(F)F	> 100	–	AC50 [5]: 6.94 µM
CCN(CC)CCn1c(SCC(=O)Nc2cccc(OC)c2)nc2c(sc3ccccc32)c1=O	> 100	> 100 µM (inactive)	–
COc1ccccc1NC(=O)COC(=O)Cc1c[nH]c2ccccc12	–	–	AC50 [5]: > 100 µM
Cc1noc(C)c1NC(=O)Nc1ccc2c(c1)C(=O)N([C@@H](C)CO)C[C@@H](C)[C@H](CN(C)C(=O)Nc1ccc3c(c1)OCO3)OCCCC[C@H](C)O2	> 100	–	–
CCCCNC(=O)c1onc(CSc2cc(C)cc(C)c2)c1C(=O)O	37.3	> 100 µM (inactive)	–
CN(C)CCCNc1ccc(-c2cc(Nc3cccc(Cl)c3)ncn2)cn1	–	> 100 µM (inactive)	–
Cc1c(-c2cccc(Cl)c2)nc2ccccc2c1C(=O)N1CCC2(CC1)OCCO2	–	> 100 µM (inactive)	–
CCOC(=O)c1c(NC(=O)CN2CCC(C)CC2)sc(C)c1C	–	> 100 µM (inactive)	–
Cc1ccc(NC(=O)c2ccc([N+](=O)[O-])o2)c(C)c1	–	> 100 µM (inactive)	–
O=C(NCc1ccccc1Cl)[C@H]1CCCN1C(=O)[C@H]1CCCN1C(=O)c1cccc2ccccc12	> 100	> 100 µM (inactive)	–
COc1ccc(-c2nc(NC(C)=O)sc2-c2ccccc2)cc1	–	> 100 µM (inactive)	–
CCOc1ccc(S(=O)(=O)N(C)c2ccc(OCC(=O)NCc3cccnc3)cc2)cc1	> 100	> 100 µM (inactive)	–
CCCCCc1nnc(NC(=O)C2COc3ccccc3O2)s1 (centres undefined)	> 100	> 100 µM (inactive)	AC50 [5]: 23.2 µM
O=C(C1Cc2ccccc2CN1C(=O)c1ccccc1)N1CCN(c2ccccc2)CC1 (centres undefined)	> 100	> 100 µM (inactive)	AC50 [5]: > 100 µM
CCOC(=O)Cc1nnc(NC(=O)CSc2nc3ccccc3[nH]2)s1	–	> 100 µM (inactive)	–
CN(C)S(=O)(=O)c1cccc(C(=O)Nc2ccc(C(=O)Nc3cccc(S(N)(=O)=O)c3)cc2)c1	–	> 100 µM (inactive)	–
CCc1nn2cc(C(=O)c3cc(Cl)ccc3O)cnc2c1-c1ccc(F)cc1	–	> 100 µM (inactive)	–
COc1ccc(C(CC(=O)c2ccc(O)cc2)S(=O)(=O)c2ccc(C)cc2)cc1 (centres undefined)	–	> 100 µM (inactive)	–
Cc1ccc(CNS(=O)(=O)c2ccc3c(c2)NC(=O)CS3)cc1	–	> 100 µM (inactive)	–
COc1ccc(Oc2ccc(C(F)(F)F)cc2NC(=O)CC(CC(=O)O)c2ccccc2)cc1 (centres undefined)	> 100	> 100 µM (inactive)	–

From PubChem BioAssay AID1035470 (Broad Institute, 2014)
